# Experiments:
# Assay type in all cases: cell-based
# JNK = test: Immunoblot of phospho-JNK in MM.1 S cells; conditions: 10 μM, 0-6 hours
# Method: (§1) 5×10^6 were cells treated with 10 μM 8-NH2-Ado for the indicated times and harvested. Cell pellets were washed with cold phosphate-buffered saline (PBS; 8.1 g NaCl, 1.14 g Na2HPO4, 0.22 g KCl, and 0.25 g/L KH2PO4) and incubated with lysis buffer (50 mM HEPES, 150 mM NaCl, 1.5 mM MgCl2, 1 mM EDTA pH 8.0, 100 mM NaFI, 10 mM Na Pyrophosphate, 500 μM PMSF, 0.5% Triton X-100, 10% glycerol) at 4° C. for one hour. Lysates were centrifuged at 4° C. for 1 minute at 9000×g, and the supernatants were collected and stored at −20° C. Protein concentration was determined by Bio-Rad protein assay (BioRad Laboratories, Hercules, Calif.). Protein, at a concentration of 30 μg, was mixed with sample buffer (125 mM Tris, pH 6.8, 4% SDS, 20% glycerol, 100 mM Dithiothreitol (DTT), and 0.05% bromophenol blue), and fractionated on a pre-cast 8-16% Tris-Glycine gel (Invitrogen/Novex, Carlsbad, Calif.). Proteins were then transferred to a Polyvinylidene Fluoride (PVDF) membrane (Immobilon-P, Millipore, Bedford, Mass.): Following protein transfer, membranes were blocked with 5% non-fat milk in PBS-T (PBS with 0.1% Tween), incubated with the primary antibody overnight at 4° C. and subsequently with horseradish peroxidase linked secondary antibody (Amersham, Arlington Heights, Ill.). […]
# MKP1 = test: Immunoblot of MKP1 in MM.1 S cells; conditions: 10 μM, 0-6 hours
# Method: as §1, with “Calif.).” for “Calif.). Proteins were then transferred to a Polyvinylidene Fluoride (PVDF) membrane (Immobilon-P, Millipore, Bedford, Mass.): Following protein transfer, membranes were blocked with 5% non-fat milk in PBS-T (PBS with 0.1% Tween), incubated with the primary antibody overnight at 4° C. and subsequently with horseradish peroxidase linked secondary antibody (Amersham, Arlington Heights, Ill.).”
# One possible mechanism for the decrease in phosphorylation of the kinase molecules and their substrates is an increase in the activity of the phosphatase(s) that regulate them. To test this hypothesis, levels of MKPI, a dual specificity phosphatase that can act to dephosphorylate p38 MAPK, were assessed MM.1 S cells were exposed to 10 μM 8-NH2-Ado for 0, 0.5, 1, 2, 4 and 6 hours after which cells were lysed as previously described. […]
# p38 MAPK = test: Immunoblot of phospho-p38 MAPK in MM.1 S cells; conditions: 10 μM
# Method: (§2) 5×10^6 were cells treated with 10 μM 8-NH2-Ado for the indicated times and harvested. Cell pellets were washed with cold phosphate-buffered saline (PBS; 8.1 g NaCl, 1.14 g Na2HPO4, 0.22 g KCl, and 0.25 g/L KH2PO4) and incubated with lysis buffer (50 mM HEPES, 150 mM NaCl, 1.5 mM MgCl2, 1 mM EDTA pH 8.0, 100 mM NaFI, 10 mM Na Pyrophosphate, 500 μM PMSF, 0.5% Triton X-100, 10% glycerol) at 4° C. for one hour. Lysates were centrifuged at 4° C. for 1 minute at 9000×g, and the supernatants were collected and stored at −20° C. Protein concentration was determined by Bio-Rad protein assay (BioRad Laboratories, Hercules, Calif.). Protein, at a concentration of 30 μg, was mixed with sample buffer (125 mM Tris, pH 6.8, 4% SDS, 20% glycerol, 100 mM Dithiothreitol (DTT), and 0.05% bromophenol blue), and fractionated on a pre-cast 8-16% Tris-Glycine gel (Invitrogen/Novex, Carlsbad, Calif.). Proteins were then transferred to a Polyvinylidene Fluoride (PVDF) membrane (Immobilon-P, Millipore, Bedford, Mass.): Following protein transfer, membranes were blocked with 5% non-fat milk in PBS-T (PBS with 0.1% Tween), incubated with the primary antibody overnight at 4° C. and subsequently with horseradish peroxidase linked secondary antibody (Amersham, Arlington Heights, Ill.). Blots were developed using ECL Plus Chemiluminescent Western Blotting Detection reagent (Amersham, Arlington Heights, Ill.) and the signal was visualized with X-ray film (Hyperfilm, Amersham, Arlington Heights, Ill.). For reprobing purposes, blots were stripped using Restore Western Blot Stripping Buffer from Pierce Biotechnology (Rockford, Ill.). Phospho-MKK3/6 (Ser189/207), phospho-p38 (Thr180/Tyr182), phospho-ATF-2 (Thr69/71), phospho-c-Raf (Ser259), phospho-MEK1/2 (Ser217/221), total MEK1/2, phospho-ERK1/2 (Thr202/Tyr204), total ERK1/2, phospho-p90RSK (Ser380), total RSK, phospho-PDK1 (Ser241), total PDKI, phospho-PTEN (Ser380), total PTEN, phospho-Akt (Ser473), total Akt, phospho-GSK-3β (Ser9), total GSK-3β, phospho-FKHRLI (Thr32)/-FKHR (Thr24), phospho-FKHR (Ser256) primary antibodies were obtained from Cell Signaling Technology (Beverly, Mass.). Total MKK3, total MKK6, total p38, total ATF-2, total c-Raf, total FKHR, total FKHRLI, phospho-JNK and total JNK were purchased from Santa Cruz Biotechnology (Santa Cruz, Calif.). Caspase 3, caspase 9, and PARP antibodies were obtained from Pharmingen (San Diego, Calif.) and anti-MKP1 from Upstate (Lake Placid, N.Y.). Anti-caspase 8 mouse serum was a generous gift of Dr. Marcus Peter (University of Chicago).
# MM.1 S cells were exposed to 10 μM 8-NH2-Ado for 0, 0.5, 1, 2, 4 and 6 hours, after which cells were lysed as previously (Example 2). 30 μg of protein was separated by gel electrophoresis, transferred to PVDF membrane, and probed with phosphorylation-specific antibodies to MKK3/6, p38 MAPK, ATF-2, MEK1/2, ERK1/2, p90RSK, JNK1, PDK1, Akt, FKHRL1 and GSK-3β. […] FIGS. 1A, 1B, 1C and 1D provide the results of the blots.
# (§3) MM. I S cells were treated with 10 μM 8-chloro-adenosine for 0, 0.5, 1, 2, 4 or 6 hours or 10 μM of cytarabine, fludarabine, gemcitabine or 8-amino-adenosine for 4 hours. Cells were lysed as previously described and 30 μg of protein was separated by gel electrophoresis, transferred to PVDF membrane, and probed with phospho-p38 MAPK (Thr180/Tyr182) antibody.
# In a parallel approach to test the involvement of cellular phosphatases, we treated MM.1 S cells with varying concentrations of the phosphatase inhibitor okadaic acid in combination with 8-NH2-Ado for 4 hours to assess whether the serine/threonine phosphatases PP2A and PPI are involved.
# PDK1 = test: Immunoblot of PDK1 (total and phosphorylated) in MM.1 S cells; conditions: 10 μM, 0-6 hours
# Method: as §1
# ERK1/2 = test: Immunoblot of phospho-ERK1/2 in MM.1 S cells; conditions: 10 μM
# Method: as §2
# MM.1 S cells were exposed to 10 μM 8-NH2-Ado for 0, 0.5, 1, 2, 4 and 6 hours, after which cells were lysed as previously (Example 2). 30 μg of protein was separated by gel electrophoresis, transferred to PVDF membrane, and probed with phosphorylation-specific antibodies to MKK3/6, p38 MAPK, ATF-2, MEK1/2, ERK1/2, p90RSK, JNK1, PDK1, Akt, FKHRL1 and GSK-3β.
# as §3
# MM.1 S cells were grown in dextrose-free media and treated with 2 μM Antimycin A, 5 mM 2-DOG, and varying concentrations of dextrose for 90 minutes. Cellular ATP levels were determined using triplicate samples in a luciferase based assay and are expressed here as a percentage of untreated control.
# MEK1/2 = test: Immunoblot of phospho-MEK1/2 in MM.1 S cells; conditions: 10 μM, 0-6 hours
# Method: as §1
# PTEN = test: Immunoblot of PTEN (total and phospho) in MM.1 S cells; conditions: 10 μM, 0-6 hours
# Method: as §1, with “Calif.).” for “Calif.). Proteins were then transferred to a Polyvinylidene Fluoride (PVDF) membrane (Immobilon-P, Millipore, Bedford, Mass.): Following protein transfer, membranes were blocked with 5% non-fat milk in PBS-T (PBS with 0.1% Tween), incubated with the primary antibody overnight at 4° C. and subsequently with horseradish peroxidase linked secondary antibody (Amersham, Arlington Heights, Ill.).”
# In addition, the effect of 8-NH2-Ado treatment on PTEN, which encodes a key phosphatase involved in the negative regulation of the PI3K/Akt signaling pathway was assessed (FIG. 5B). […]
# ATF-2 = test: Immunoblot of phospho-ATF-2 in MM.1 S cells; conditions: 10 μM, by 2 hours
# Method: as §1
compound,measurement,setting,value
"Nc1ncnc2c1nc(N)n2[C@@H]1O[C@H](CO)[C@@H](O)[C@H]1O [8-NH2-Ado, 8-amino-adenosine]",JNK phosphorylation,JNK,unaffected
same,MKP1 levels,MKP1,unaltered
same,phosphorylation of p38,p38 MAPK; 4 hours,dramatic loss of phosphorylation
same,p38 phosphorylation levels,p38 MAPK; after 2 hours,no appreciable phosphorylation
same,p38 phosphorylation levels,p38 MAPK; by 1 hour,dramatically reduced
same,Total and phosphorylated levels of PDK1,PDK1,remain unchanged
same,phosphorylation of ERK1/2,"ERK1/2; 4 hours, data not shown",dramatic loss of phosphorylation
same,Phosphorylation of the ERK1/2 kinases,ERK1/2; by 30 minutes,decreases significantly
same,Phosphorylation of the ERK1/2 kinases,ERK1/2; by 2 hours,declines to negligible levels
same,phosphorylation levels of MEK1/2,MEK1/2,appear to increase
same,total and phospho-PTEN levels,PTEN,unaltered
same,levels of phosphorylated ATF-2,ATF-2,falling considerably
